Results reported in US7452997B2 (priority 2004, dated 2008).
Where two headings read alike, the source gives them in different places.

How the values were obtained:
human CB1 receptor [1] = target: T1, human CB1 receptor (Homo sapiens, UniProt P21554); experiment: biochemical; assay type: binding
T1 construct: expressed in transfected cells; host or cells: SK-N-MC cells, stably transfected with pcDNA3 CB-1 (human); semi-purified membrane pellet
How it was run: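 Membranes from SK-N-MC cells stably expressing human CB1, incubated 90 minutes at 30° C in Tris-HCl buffer with MgCl2, EDTA and fatty acid free BSA, pH 7.5. Bound counts collected by filtration and scintillation counting; IC50 from linear regression over varying compound concentrations.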

human CB2 receptor [2] = target: T2, human CB2 receptor (Homo sapiens, UniProt P34972); experiment: Binding assay, cannabinoid CB2 receptor ([3H]-CP-55,940 displacement); settings: SK-N-MC cell membranes, radioligand CP-55,940 0.2 nM
How it was run: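 Membranes from SK-N-MC cells stably expressing human CB2, incubated with test compound and 0.2 nM [3H]-CP-55,940 for 90 min at 30 °C in Tris buffer pH 7.5 with fatty-acid-free BSA. Nonspecific binding defined with 10 uM WIN 55,212; filtration and scintillation counting, IC50 by linear regression.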

human CB1 receptor [3] = target: T1, human CB1 receptor; experiment: Functional cell-based assay, CB1 receptor mediated change in CRE β-gal expression (agonist / inverse agonist)
From the text: (§1) Functional Cell-Based Assay for CB1 or CB2 Agonist and Inverse Agonist Effects on Intra-Cellular Adenylate Cyclase Activity
(§2) The CB1 and CB2 receptors are G-protein coupled receptors (GPCR) which influence cell function via the Gi-protein. These receptors modulate the activity of intracellular adenylate cyclase which in turn produces the intracellular signal messenger cyclic-AMP (cAMP).
(§3) At baseline, or during non-ligand bound conditions, these receptors are constitutively active and tonically suppress adenylate cyclase activity. The binding of an agonists causes further receptor activation and produces additional suppression of adenylate cyclase activity. The binding of an inverse agonist inhibits the constitutive activity of the receptors and results in an increase in adenylate cyclase activity.
(§4) By monitoring intracellular adenylate cyclase activity, the ability of compounds to act as agonists or inverse agonists can be determined.
(§5) Test compounds were evaluated in SK-N-MC cells which, using standard transfection procedures, were stably transfected with human cDNA for pcDNA3-CRE β-gal and pcDNA3 CB1 receptor (human) or pcDNA3 CB2 receptor (human). By expressing CRE β-gal, the cells produced β-galactosidase in response to CRE promoter activation by cAMP. Cells expressing CRE β-gal and either the human CB1 or CB2 receptor will produce less β-galactosidase when treated with a CB1/CB2 agonist and will produce more β-galactosidase when treated with a CB1/CB2 inverse agonist.
(§6) The cells were grown in 96-well plates under standard cell culture conditions at 37° C. in a 5% CO2 atmosphere. After 3 days, the media was removed and a test compound in media (wherein the media was supplemented with 2 mM L-glutamine, […] sodium pyruvate, 0.1% low fatty acid FBS (fetal bovine serum) and antibiotics) was added to the cell. The plates were incubated for 30 minutes at 37° C. and the plate cells were then treated with forskolin over a 4-6 hour period, then washed and lysed. The β-galactosidase activity was quantitated using commercially available kit reagents (Promega Corp. Madison, Wis.) and a VMAX Plate Reader (Molecular Devices, Inc).
(§7) The change in β-galactosidase activity was determined by setting a vehicle treated cell's activity value at 100% and expressing the β-galactosidase activity measured in a corresponding compound treated cell as a percent of the vehicle treated cell activity.
(§8) The EC50 values for compounds tested were calculated by linear regression and were obtained from studies in which varying compound concentrations were used.

human CB2 receptor [4] = target: T2, human CB2 receptor; experiment: Functional cell-based assay, CB2 receptor mediated change in CRE β-gal expression (agonist / inverse agonist); settings: SK-N-MC cells, forskolin
From the text: as §1, §2, §3, §4, §5, §6
For cells expressing CRE β-gal and the CB2 receptor, CB2 agonists reduced β-galactosidase activity in a dose-dependent manner and CB2 inverse agonists increased β-galactosidase activity in a dose-dependent manner.
as §7, §8

[5] = Cannabinoid CB2 Receptor Binding IC50, human CB2 receptor
[6] = inverse agonist, read-out: CB2 Receptor Functional Inverse Agonist EC50

T1 sequence (P21554 whole entry): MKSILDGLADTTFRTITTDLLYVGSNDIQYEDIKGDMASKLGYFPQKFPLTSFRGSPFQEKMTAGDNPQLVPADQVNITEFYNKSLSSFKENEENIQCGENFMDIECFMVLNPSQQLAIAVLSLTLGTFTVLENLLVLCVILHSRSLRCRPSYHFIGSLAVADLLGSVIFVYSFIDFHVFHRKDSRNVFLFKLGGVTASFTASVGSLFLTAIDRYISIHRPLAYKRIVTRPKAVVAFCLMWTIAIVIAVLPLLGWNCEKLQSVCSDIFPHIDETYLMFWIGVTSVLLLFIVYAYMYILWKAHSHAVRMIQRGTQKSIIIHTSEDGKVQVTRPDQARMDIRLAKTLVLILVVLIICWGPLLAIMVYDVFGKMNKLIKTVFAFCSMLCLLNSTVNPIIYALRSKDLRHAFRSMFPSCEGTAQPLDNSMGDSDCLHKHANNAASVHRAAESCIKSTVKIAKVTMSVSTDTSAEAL
T2 sequence (P34972 whole entry): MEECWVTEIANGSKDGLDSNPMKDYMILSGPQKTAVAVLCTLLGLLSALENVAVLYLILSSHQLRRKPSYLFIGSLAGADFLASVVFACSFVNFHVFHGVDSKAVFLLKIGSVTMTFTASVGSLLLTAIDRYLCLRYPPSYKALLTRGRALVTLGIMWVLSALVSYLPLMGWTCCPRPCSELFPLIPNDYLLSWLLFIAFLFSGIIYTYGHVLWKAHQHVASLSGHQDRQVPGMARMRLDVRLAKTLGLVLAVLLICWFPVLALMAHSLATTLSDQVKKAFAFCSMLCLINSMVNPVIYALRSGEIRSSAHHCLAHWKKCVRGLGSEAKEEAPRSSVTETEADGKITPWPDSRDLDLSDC

| Structure (SMILES) | IC50 (human CB1 receptor [1]) [nM] | IC50 (human CB2 receptor [2]; [5]) [nM] | EC50 (human CB1 receptor [3]) [nM] | IC50 (human CB1 receptor [1]; human CB1 receptor, SK-N-MC cell membranes, radioligand CP-55,940 0.2 nM, read-out: Cannabinoid CB1 Receptor Binding IC50) [nM] | IC50 (human CB2 receptor [2]; human CB2 receptor, read-out: Cannabinoid CB2 Receptor Binding IC50) [nM] | EC50 (human CB1 receptor [3]; SK-N-MC cells, CRE β-gal, human CB1 receptor, forskolin, inverse agonist, read-out: CB1 Receptor Functional Inverse Agonist EC50) [nM] | EC50 (human CB2 receptor [4]; [6]) [nM] | EC50 (human CB2 receptor [4]; agonist, read-out: CB2 Receptor Functional Agonist EC50) [nM] |
| --- | --- | --- | --- | --- | --- | --- | --- | --- |
| CCOC(=O)[C@H]1C2CCC(C2)[C@H]1NC(=O)c1nn(-c2ccc(F)cc2)c2c1CCCC2c1ccccc1 (some centres unmarked) [compound 147] | 2080 | 1790 | 152 |  |  |  |  |  |
| COc1ccc(-n2nc(C(=O)NCCc3ccc(N)cc3)c3c2CCCC3)cc1 [compound 7] |  |  |  | 3100 | 3570 | 3880 |  |  |
| CCOC(=O)[C@@H]1CCCC[C@@H]1NC(=O)c1nn(-c2ccc(F)cc2)c2c1CCCC2 [compound 33] | 58 | 8 | 135 |  |  |  |  |  |
| CC12CCC(C1)C(C)(C)C2NC(=O)Nc1nn(Cc2ccccc2)c2c1CCCC2 (centres unmarked) [compound 338] | 1350 | 27 | 6 |  |  |  |  |  |
| C[C@H](NC(=O)c1nn(-c2ccc(Cl)cc2Cl)c2c1CCC/C2=C\c1ccc(Cl)cc1)c1ccccc1 [compound 294] | 110 | 700 | 140 |  |  |  |  |  |
| CCOC(=O)C1CCc2c(c(C(=O)NC3C4CC5CC(C4)CC3C5)nn2Cc2ccccc2)C1 (centres unmarked) [compound 226] | 7.9 | 5.5 | 520 |  |  |  | 65 |  |
| CCOC(=O)C1C2CCC(C2)C1NC(=O)c1nn(Cc2ccccc2)c2c1CCCC2 (centres unmarked) [compound 43] | 14 | 1 | 295 |  |  |  |  |  |
| CC12CCC(C1)C(C)(C)C2NC(=O)c1nn(-c2ccc(F)cc2)c2c1CCCC2c1ccccc1 (centres unmarked) [compound 144] | 220 | 40 | 176 |  |  |  |  |  |
| CC(NC(=O)c1nn(Cc2ccccc2)c2c1CCCC2c1ccccc1)c1ccccc1 (centres unmarked) [compound 253] | 25 | 300 | 1940 |  |  |  |  |  |
| O=C(NC12CC3CC(CC(C3)C1)C2)c1nn(-c2ccc(F)cc2)c2c1CCCC2c1ccccc1 (centres unmarked) [compound 165] |  | 800 | 1030 |  |  |  |  |  |
| O=C(NN1CCCCC1)c1nn(-c2ccc(Cl)cc2Cl)c2c1CCC/C2=C\c1ccc(Cl)cc1 [compound 290] | 25 | 1000 | 44 |  |  |  |  |  |
| CCNC(=O)[C@@H]1C2CCC(C2)[C@@H]1NC(=O)c1nn(Cc2ccccc2)c2c1CCCC2 (some centres unmarked) [compound 167] | 1660 | 28 | 3360 |  |  |  |  |  |
| O=C(NN1CCOCC1)c1nn(-c2ccc(Cl)cc2Cl)c2c1CCC/C2=C\c1ccc(Cl)cc1 [compound 291] | 180 | 1700 | 10 |  |  |  |  |  |
| CCOC(=O)[C@@H]1CCCC[C@@H]1NC(=O)c1nn(Cc2ccccc2)c2c1CCCC2 (relative stereo) [compound 38] | 6 | 3.3 | 103 |  |  |  |  |  |
| C[C@H](NC(=O)c1nn(-c2ccc(Cl)cc2Cl)c2c1CCCC2=Cc1ccc(Cl)cc1)C1CCCCC1 [compound 321] | 230 | 600 | 133 |  |  |  |  |  |
| C[C@@H](NC(=O)c1nn(-c2ccc(Cl)cc2Cl)c2c1CCC/C2=C\c1ccc(F)cc1)C1CCCCC1 [compound 295] | 3 |  | < 30 |  |  |  |  |  |
| CC12CCC(C1)C(C)(C)C2NC(=O)c1nn(-c2ccc(F)cc2)c2c1CCCC2CCc1ccccc1 (centres unmarked) [compound 151] | 590 | 30 | 801 |  |  |  |  |  |
| COc1ccc(-n2nc(C(=O)NC3C4(C)CCC(C4)C3(C)C)c3c2CCCC3)cc1 (centres unmarked) [compound 9] | 338 | 11.9 | 2750 |  |  |  |  |  |
| C[C@@H](NC(=O)c1nn(-c2ccc(Cl)cc2Cl)c2c1CCC/C2=C\c1ccc(F)cc1)c1ccccc1 [compound 296] | 5 |  | 13 |  |  |  |  |  |
| CCOC(=O)C1CCc2c(c(C(=O)NC3C4(C)CCC(C4)C3(C)C)nn2C2CCCCC2)C1 (centres unmarked) [compound 67] | 300 | 15.5 | 524 |  |  |  | 23 |  |
| CCOC(=O)C1CCc2c(c(C(=O)NC3C4CC5CC(C4)CC3C5)nn2C2CCCCC2)C1 (centres unmarked) [compound 222] | 280 | 4.9 | 194 |  |  |  | 33 |  |
| CCOC(=O)C1CCc2c(c(C(=O)NC(C)c3ccccc3)nn2Cc2ccccc2)C1 (centres unmarked) [compound 256] | 260 | 300 | 250 |  |  |  |  |  |
| CCOC(=O)C1C2CCC(C2)C1NC(=O)c1nn(C2CCCCC2)c2c1CCCC2 (centres unmarked) [compound 28] | 850 | 7.5 | 2030 |  |  |  |  | 330 |
| CCOC(=O)C1CCCc2c1c(C(=O)NC1C3(C)CCC(C3)C1(C)C)nn2C1CCCCC1 (centres unmarked) [compound 73] | 760 | 295 | 1740 |  |  |  |  |  |
| C[C@@H](NC(=O)c1nn(-c2ccc(Cl)cc2Cl)c2c1CCC/C2=C\c1ccc(Cl)cc1)C1CCCCC1 [compound 293] | 6 | 600 | 25 |  |  |  |  |  |
| CC1(C)[C@@H]2CC[C@@](C)(C2)[C@H]1NC(=O)c1nn(-c2ccc(Cl)cc2Cl)c2c1CCC/C2=C\c1ccc(Cl)cc1 [compound 292] | 33 | 60 | 9 |  |  |  |  |  |
| CCOC(=O)C1CCc2c(C(=O)NC3C4(C)CCC(C4)C3(C)C)nn(C3CCCCC3)c2C1 (centres unmarked) [compound 70] | 125 | 16 | 1000 |  |  |  | 45.9 |  |
| C[C@H](NC(=O)/C=C/c1nn(Cc2ccccc2)c2c1CCCC2)c1ccccc1 [compound 305] | 9800 | 7200 | 630 |  |  |  |  |  |
| CCOC(=O)[C@@H]1CCc2c(c(C(=O)NC3C4(C)CCC(C4)C3(C)C)nn2-c2ccccc2)C1 (some centres unmarked) [compound 220] |  | 230 | 399 |  |  |  | 220 |  |
